Data reported in patent publication US20070015688A1, “Method for screening for inhibitors of alzheimer's disease” (priority 2000, published 2007).

Test system: low-density lipoprotein (LDL)
Assay: LDL oxidation (lipid peroxidation) assay of Cu-metallated APP proteins
Format: biochemical
Conditions: for % of lipid peroxidation by control: Cu-metallated proteins, 0.5 mg/mL LDL, 24 hr, 37° C., control LDL in PBS alone = 100; for effect on lipid peroxidation (Cu-reducing) activity of the CuBD, in words: mutations incorporated into APP133-189
Experimental: Mutagenesis experiments were performed to test this. His147 and His151 were mutated to Asn, Tyr168 was mutated to Phe, and Met170 was mutated to Leu. These mutations were incorporated into APP133-189. Recombinant protein was expressed in Pichia pastoris as described above, and purified by standard chromatography methods. The identities of the purified proteins were verified by mass spectrometry. The Cu-reducing activity of the CuBD was tested in a lipid peroxidation assay.
Two different assays of metal mediated lipid peroxidation were utilized. The first assay involved measuring the oxidative activity of metallated proteins. This was determined by mixing dialyzed metallated or native protein at designated concentrations with 0.5 mg/mL low-density lipoprotein (LDL) for 24 hr (37° C.). Lipid peroxidation was measured using a lipid peroxidation assay kit (LPO 486, Oxis International Inc. Portland, Oreg.), as per kit instructions.
The control is LDL (0.5 mg/mL) in PBS buffer alone. […] APP133-189 induced strong lipid peroxidation (3-fold above background).

Substance	% of lipid peroxidation by control [%]	lipid peroxidation above background (background = APP28-123 negative control) [fold]	effect on lipid peroxidation (Cu-reducing) activity of the CuBD, in words
APP133-189: truncated version of the CuBD of APP, recombinant protein expressed in Pichia pastoris (CKFLHQERMDVCETHLHWHTVAKETCSEKSTNLHDYGMLLPCGIDKFRGVEFVCCPL; UniProt P05067 133-189, looked up, fragment)	312	3	–
His147Asn: APP133-189 with His147 mutated to Asn	87	–	abolished this activity
His151Asn: APP133-189 with His151 mutated to Asn	196	–	affected the activity, but to a lesser extent
Met170Leu: APP133-189 with Met170 mutated to Leu	142	–	significant effect on the activity
Tyr168Phe: APP133-189 with Tyr168 mutated to Phe	111	–	significant effect on the activity
